Assay: Human HepG2 cell viability assay in 384 well format
Format: toxicity, cell-based
Parameters: dose 125 nL, time 70.5 hour; cytotoxicity at 70.5 h: concentration not given beside the values
Conditions: HepG2 cells, read-out: Inhibition

Row | Structure (SMILES) | cytotoxicity at 70.5 h [%]
1 | CS(=O)(=O)CCC(=O)NC1(c2cccc(C(F)(F)F)c2)CCC1 | -24.7
2 | Cc1ccnc(NC(=O)C2CCN(CCCc3cn[nH]c3)CC2)c1 | -14.2
3 | CCC(C(=O)Nc1ccc(-c2nc(C)n[nH]2)cc1)N1CCCC1=O (configuration not stated) | -9.81
4 | Cc1cccc2c1NC1(CCOCC1)NC2=O | -26.4
5 | CCN1CCc2c(cccc2NC(=O)N(C)C2CCSC2)C1 (configuration not stated) | -10.8
6 | CCN1CCN(c2ccccc2NC(=O)N(C)C2CCSC2)CC1 (configuration not stated) | -13.8
7 | CCC(C(=O)Nc1ccc2c(C)n[nH]c2c1)N1CCCC1=O (configuration not stated) | 21.5
8 | CC(=O)NCCNC(=O)c1cc(C)ccc1SC1CCCC1 | -11.6
9 | Cc1ccnc(NC(=O)C2CCN(CCCn3ccnc3C)CC2)c1 | -13
10 | O=S(=O)(Cc1ccc(F)cc1F)NCCOc1cccnc1 | -18.9
11 | Cc1ccc(SC2CCCC2)c(C(=O)NCCO)c1 | -23.4
12 | CC(O)CNc1ccc(C#N)cc1C(F)(F)F (configuration not stated) | -12.9
13 | O=C(CCC1CCCO1)NCCc1ccccn1 (configuration not stated) | -10
14 | Cc1csc(N2CCN(Cc3nnsc3Cl)CC2C)n1 (configuration not stated) | -16
15 | CCn1c(CN(C)Cc2cnc(C)s2)nc2cc(F)ccc21 | 10.8
16 | CC1CN(Cc2nnsc2Cl)CCN1c1nccs1 (configuration not stated) | -19.1
17 | CO[C@H]1CN(C(=O)OC(C)(C)C)CC1NCc1ccn(C)c1 (some centres not stated) | -6.04
18 | c1csc(C(CNCc2cccc3c2OCO3)N2CCOCC2)c1 (configuration not stated) | -13.2
19 | NC(=O)c1cccc(CCNCc2cnc(C3CCC3)s2)c1 | 7.84
20 | Cc1nn(C)c(C)c1NC(=O)CN1CCCC1c1noc(C2CC2)n1 (configuration not stated) | 8.6
21 | CS(=O)(=O)c1ccccc1C(=O)NCC1Cc2ccccc2O1 (configuration not stated) | -4.69
22 | Cc1nccn1-c1cc(CNC(=O)C(C)(C)C)ccn1 | -4.88
23 | Cc1nccn1-c1cc(CNC(=O)c2ccccn2)ccn1 | -4.56
24 | CCCOc1ccc(NC(=O)NCCC(=O)N(C)C)cc1Cl | -4.39

Row | Structure (SMILES) | cytotoxicity at 70.5 h [%]
25 | N#Cc1ccc(CNCC2CCN(CCO)CC2)cc1 | -5.67
26 | O=C(CCc1nccs1)N1CCC(N2CCNC2=O)CC1 | -3.7
27 | O=C(Cc1cccs1)NC1CCN(c2cccc(F)c2)CC1 | 1.18
28 | Cc1cc(NC(=O)CN2CCCC2c2noc(C3CC3)n2)no1 (configuration not stated) | 1.09
29 | Cc1cc(N2CCC(N(C)C(=O)Nc3ccccc3)CC2)nc(C)n1 | 2.35
30 | O=C(NCC(O)c1ccccc1Cl)c1cccc(-n2cnnn2)c1 (configuration not stated) | -0.179
31 | C1CC1c1nsc(N2CCN(C3CC3)CC2)n1 | 1.41
32 | Cn1c(CN2CCN(CC3CC3)CC2)nnc1C1CCC1 | 20.3
33 | CCN1CCCC1CN(CCN(C)C)S(=O)(=O)c1cccc(C#N)c1 (configuration not stated) | -1.36
34 | Cc1cccc(CNCc2c(C(C)C)nn(C)c2N2CCOCC2)n1 | 0.6
35 | Cc1nc(C)n(CC2CCCN2CC(=O)NCCc2ccccc2)n1 (configuration not stated) | -4.21
36 | Cc1cc(CNC(=O)N2CCN(c3ccccc3)CC2)no1 | -3.89
37 | CCS(=O)(=O)CCn1ccc(NC(=O)CCc2cccc(C)c2)n1 | -2.75
38 | CC(Oc1ccccc1C(F)(F)F)C(=O)NS(=O)(=O)C(C)C (configuration not stated) | 1.98
39 | Cc1nc(C)n(C2CCCN(C(=O)c3ccc(F)cc3F)C2)n1 (configuration not stated) | -4.94
40 | Cc1nc(C)c(CNC(=O)NC(c2nnc3n2CCC3)C(C)C)s1 (configuration not stated) | -1.59
41 | Cc1ncsc1C(=O)NCCOc1ncc(Cl)cc1Cl | 1.13
42 | CC(C)C(NC(=O)NCC1(CO)CC1)c1nnc2n1CCC2 (configuration not stated) | -4.32
43 | Cc1cc(CNC(=O)N2CCN(c3nc(C)c(C)s3)CC2)no1 | 7.38
44 | Cc1nccc(C(=O)N2CCCN(Cc3cnn(C(C)C)c3)CC2)n1 | -4.5
45 | CCn1ccnc1CN1CCN(CCC(=O)NC(C)(C)C)CC1C (configuration not stated) | -1.52
46 | CCc1ccc(NC(=O)N2C[C@H]3C[C@H](C(=O)N4CCCC4)[C@@H](C2)O3)cc1 | 21
47 | O=C(O)CC1CN(Cc2ccccc2)CCO1 (configuration not stated) | -0.381
